Source: patent US9498479B2, “Dihydropyrimidine compounds and their application in pharmaceuticals” (SUNSHINE LAKE PHARMA CO., LTD., priority 2013, dated 2016)
Where two headings read alike, the source gives them in different places. One block for each molecule: values may come before it.

Columns and labels:
[1] = test system: HBV; test: In-vitro anti-HBV activity in stable HBV-producing cell line (HepG2.2.15), HBV DNA in culture fluid by qPCR; format: cell-based; conditions: Hepatitis B virus, 168 h; HepG2.2.15 cells, HBV DNA in culture media on day 7, qPCR
Protocol: Specific procedures are as follows:
HepG2.2.15 cells were seeded into each well of 96-well plates, 40,000 cells per well. Cells were treated with cell culture medium containing compounds with different concentrations 24 hours after cell seeding. The final concentration of each compound was 16.4 μM in each well and each compound was diluted to desired concentration using 3-fold gradient dilution protocol, 9 diluted points in duplicate. The culture mediums containing the compounds were refreshed on day 4 post cell seeding. Culture media were collected from the HepG2.2.15 plates on day 7 post cell seeding followed by HBV DNA extraction.
HBV DNA extraction: The HBV DNA extraction was performed using QIAamp 96 DNA Blood Kit (QIAGEN 51161).
PCR for quantification: PCR mix was prepared according to PCR system. PCR mix was dispensed to 96-well optical reaction plates (special for quantification). The standard diluted proportionally was added. Then the sample was added; The plates were sealed with optical adhesive film; PCR system was performed according to programs.
Percentage of HBV inhibition of DNA replication by compound was calculated using the following equation: % Inh.=[1-HBV DNA quantity of sample/HBV DNA quantity of DMSO control]*100.
Calculating EC50 value of compounds to HBV replication: the EC50 values were calculated based on “four-parameter logistic equation” and using GraphPad Prism 5 analysis software.

[2] = Test compounds' PK assay in ICR mice; format: in vivo; conditions: for AUC(0-t): AUC in 0-24 hours; for AUC(0-inf): AUC in 0 hour to infinite time; for Vd: read-out: Vss
Protocol: The test compounds were poured into ICR mice stomach through mouth with 10 mg/kg or 5 mg/kg, or administered 2 mg/kg to ICR mice by tail-intravenous injection. Blood sample of orbital vein was taken at 0.083, 0.25, 0.5, 1, 2, 4, 6, 8 and 24 hours after administration, and collected in anticoagulation tube added with EDTA-K2. The test compounds were extracted from plasma samples and chromatographed on a tandem mass spectrometer. Quantitation was performed using multiple reaction monitoring (MRM). Pharmacokinetic parameters were calculated using WinNonlin 6.3 software with non compartment model.

[3] = ICR mice, po 5 mg/kg vs iv 2 mg/kg, calculated by the AUClast
[4] = mouse, plasma, ICR mice, iv, 2 mg/kg
[5] = mouse, plasma, ICR mice, iv, 2 mg/kg, read-out: Cmax
[6] = mouse, plasma, ICR mice, iv, 2 mg/kg, read-out: Tmax
[7] = mouse, plasma, ICR mice, po, 5 mg/kg
[8] = mouse, plasma, ICR mice, po, 5 mg/kg, read-out: Cmax
[9] = mouse, plasma, ICR mice, po, 5 mg/kg, read-out: Tmax

SMILES: CCOC(=O)C1=C(CN2CCS(=O)(=O)C[C@H]2C(=O)O)NC(c2nccs2)=N[C@H]1c1ccc(F)cc1Br [Example 2, (R)-4-(((R)-6-(2-bromo-4-fluorophenyl)-5-(ethoxycarbonyl)-2-(thiazol-2-yl)-3,6-dihydropyrimidin-4-yl)methyl)thiomorpholine-3-carboxylic acid 1,1-dioxide]
EC50 [1]: 6630 nM

SMILES: COC(=O)C1=C(CN2CC(F)(F)C[C@@H]2CCC(=O)O)NC(c2nccs2)=N[C@H]1c1ccc(F)cc1Cl [Example 20, 3-((S)-1-(((R)-6-(2-chloro-4-fluorophenyl)-5-(methoxycarbonyl)-2-(thiazol-2-yl)-3,6-dihydropyrimidin-4-yl)methyl)-4,4-difluoropyrrolidin-2-yl)propanoic acid]
EC50 [1]: 17 nM

SMILES: COC(=O)C1=C(CN2CC(F)(F)C[C@H]2CCC(=O)O)NC(c2nccs2)=N[C@H]1c1ccc(F)cc1Br [Example 14, 3-((R)-1-(((R)-6-(2-bromo-4-fluorophenyl)-5-(methoxycarbonyl)-2-(thiazol-2-yl)-3,6-dihydropyrimidin-4-yl)methyl)-4,4-difluoropyrrolidin-2-yl)propanoic acid]
EC50 [1]: 80 nM

SMILES: CCOC(=O)C1=C(CN2CC(F)(F)C[C@H]2CCC(=O)O)NC(c2nccs2)=N[C@H]1c1ccc(Cl)cc1Cl [Example 13, 3-((R)-1-(((R)-6-(2,4-dichlorophenyl)-5-(ethoxycarbonyl)-2-(thiazol-2-yl)-3,6-dihydropyrimidin-4-yl)methyl)-4,4-difluoropyrrolidin-2-yl)propanoic acid]
EC50 [1]: 64 nM

SMILES: COC(=O)C1=C(CN2CC(F)(F)C[C@H]2CCC(=O)O)NC(c2nccs2)=N[C@H]1c1ccc(F)cc1Cl [Example 15, 3-((R)-1-(((R)-6-(2-chloro-4-fluorophenyl)-5-(methoxycarbonyl)-2-(thiazol-2-yl)-3,6-dihydropyrimidin-4-yl)methyl)-4,4-difluoropyrrolidin-2-yl)propanoic acid]
EC50 [1]: 94 nM

F [2, 3]: 86.1%
absorption after intragastric administration (in words) ([2]; ICR mice, po, 5 mg/kg): rapidly absorbed
clearance [2, 4]: 5.67 mL/min/kg
half-life [2, 4]: 193 min
AUC(0-t) [2, 4]: 5800 ng·h/mL
AUC(0-inf) [2, 4]: 5810 ng·h/mL
Cmax [2, 5]: 4260 ng/mL
Tmax [2, 6]: 4.8 min
Vd [2, 4]: 0.73 L/kg
half-life [2, 7]: 133 min
AUC(0-t) [2, 7]: 12500 ng·h/mL
AUC(0-inf) [2, 7]: 12500 ng·h/mL
Cmax [2, 8]: 4900 ng/mL
Tmax [2, 9]: 30 min
SMILES: CCOC(=O)C1=C(CN2CC(F)C(C)(C)C2CCC(=O)O)NC(c2nccs2)=N[C@H]1c1ccc(F)cc1Br (stereo partly drawn) [Example 39, 3-(1-(((R)-6-(2-bromo-4-fluorophenyl)-5-(ethoxycarbonyl)-2-(thiazol-2-yl)-3,6-dihydropyrimidin-4-yl)methyl)-4-fluoro-3,3-dimethylpyrrolidin-2-yl)propanoic acid]

F [2, 3]: 59.3%
absorption after intragastric administration (in words) ([2]; ICR mice, po, 5 mg/kg): rapidly absorbed
clearance [2, 4]: 10.2 mL/min/kg
half-life [2, 4]: 46.2 min
AUC(0-t) [2, 4]: 3270 ng·h/mL
AUC(0-inf) [2, 4]: 3270 ng·h/mL
Cmax [2, 5]: 6560 ng/mL
Tmax [2, 6]: 4.8 min
Vd [2, 4]: 0.38 L/kg
half-life [2, 7]: 188 min
AUC(0-t) [2, 7]: 4840 ng·h/mL
AUC(0-inf) [2, 7]: 4850 ng·h/mL
Cmax [2, 8]: 5410 ng/mL
Tmax [2, 9]: 15 min
SMILES: CCOC(=O)C1=C(CN2CC(F)(F)C[C@H]2CCC(=O)O)NC(c2nccs2)=N[C@H]1c1ccc(F)cc1Br [Example 6, 3-((R)-1-(((R)-6-(2-bromo-4-fluorophenyl)-5-(ethoxycarbonyl)-2-(thiazol-2-yl)-3,6-dihydropyrimidin-4-yl)methyl)-4,4-difluoropyrrolidin-2-yl)propanoic acid]

SMILES: COC(=O)C1=C(CN2CC(F)(F)C[C@H]2CCC(=O)O)NC(c2nccs2)=N[C@H]1c1ccc(Cl)cc1Cl [Example 16, 3-((R)-1-(((R)-6-(2,4-dichlorophenyl)-5-(methoxycarbonyl)-2-(thiazol-2-yl)-3,6-dihydropyrimidin-4-yl)methyl)-4,4-difluoropyrrolidin-2-yl)propanoic acid]
EC50 [1]: 62 nM

SMILES: CCOC(=O)C1=C(CN2CC(F)(F)C[C@H]2CCC(=O)O)NC(c2nccs2)=N[C@H]1c1ccc(F)cc1Cl [Example 12, 3-((R)-1-(((R)-6-(2-chloro-4-fluorophenyl)-5-(ethoxycarbonyl)-2-(thiazol-2-yl)-3,6-dihydropyrimidin-4-yl)methyl)-4,4-difluoropyrrolidin-2-yl)propanoic acid]
EC50 [1]: 98 nM

SMILES: CCOC(=O)C1=C(CN2CC(F)(F)C[C@@H]2CCC(=O)O)NC(c2nccs2)=N[C@H]1c1ccc(F)cc1Cl [Example 19, 3-((S)-1-(((R)-6-(2-chloro-4-fluorophenyl)-5-(ethoxycarbonyl)-2-(thiazol-2-yl)-3,6-dihydropyrimidin-4-yl)methyl)-4,4-difluoropyrrolidin-2-yl)propanoic acid]
EC50 [1]: 20 nM

SMILES: CCOC(=O)C1=C(CN2CC(F)(F)C[C@@H]2CCC(=O)O)NC(c2nccs2)=N[C@H]1c1ccc(Cl)cc1Cl [Example 21, 3-((S)-1-(((R)-6-(2,4-dichlorophenyl)-5-(ethoxycarbonyl)-2-(thiazol-2-yl)-3,6-dihydropyrimidin-4-yl)methyl)-4,4-difluoropyrrolidin-2-yl)propanoic acid]
EC50 [1]: 9 nM

F [2, 3]: 69.3%
absorption after intragastric administration (in words) ([2]; ICR mice, po, 5 mg/kg): rapidly absorbed
clearance [2, 4]: 11.5 mL/min/kg
half-life [2, 4]: 81 min
AUC(0-t) [2, 4]: 2860 ng·h/mL
AUC(0-inf) [2, 4]: 2870 ng·h/mL
Cmax [2, 5]: 5790 ng/mL
Tmax [2, 6]: 4.8 min
Vd [2, 4]: 0.39 L/kg
half-life [2, 7]: 63 min
AUC(0-t) [2, 7]: 4960 ng·h/mL
AUC(0-inf) [2, 7]: 4970 ng·h/mL
Cmax [2, 8]: 4820 ng/mL
Tmax [2, 9]: 15 min
SMILES: CCOC(=O)C1=C(CN2CC(F)(F)C[C@H]2CC(C)C(=O)O)NC(c2nccs2)=N[C@H]1c1ccc(F)cc1Br (stereo partly drawn) [Example 8, 3-((R)-1-(((R)-6-(2-bromo-4-fluorophenyl)-5-(ethoxycarbonyl)-2-(thiazol-2-yl)-3,6-dihydropyrimidin-4-yl)methyl)-4,4-difluoropyrrolidin-2-yl)-2-methylpropanoic acid]

F ([2]; mouse, in vivo): 7.75%
AUCINF ([2]; mouse, in vivo, iv, 2 mg/kg): 381.2 ng·h/mL
AUClast ([2]; mouse, in vivo, iv, 2 mg/kg): 379.13 ng·h/mL
CL ([2]; mouse, in vivo, iv, 2 mg/kg): 87.5 mL/min/kg
Cmax ([2]; mouse, in vivo, iv, 2 mg/kg): 654.37 ng/mL
Tmax ([2]; mouse, in vivo, iv, 2 mg/kg): 4.98 min
Vss ([2]; mouse, in vivo, iv, 2 mg/kg): 7.91 L/kg
t1/2 ([2]; mouse, in vivo, iv, 2 mg/kg): 172 min
AUCINF ([2]; mouse, in vivo, po, 10 mg/kg): 147.71 ng·h/mL
AUClast ([2]; mouse, in vivo, po, 10 mg/kg): 145.05 ng·h/mL
Cmax ([2]; mouse, in vivo, po, 10 mg/kg): 78.2 ng/mL
Tmax ([2]; mouse, in vivo, po, 10 mg/kg): 15 min
t1/2 ([2]; mouse, in vivo, po, 10 mg/kg): 221 min
SMILES: CCOC(=O)C1=C(CN2CCOCC2)NC(c2nccs2)=NC1c1ccc(F)cc1Br (stereo not drawn) [R, Ethyl4-(2-bromo-4-fluorophenyl)-2-(thiazol-2-yl)-6-((4-morpholino)methyl)-1,4-dihydropyrimidine-5-carboxylate, reference compound]

F [2, 3]: 60.2%
absorption after intragastric administration (in words) ([2]; ICR mice, po, 5 mg/kg): rapidly absorbed
clearance [2, 4]: 10.3 mL/min/kg
half-life [2, 4]: 82.2 min
AUC(0-t) [2, 4]: 3230 ng·h/mL
AUC(0-inf) [2, 4]: 3240 ng·h/mL
Cmax [2, 5]: 6270 ng/mL
Tmax [2, 6]: 4.8 min
Vd [2, 4]: 0.33 L/kg
half-life [2, 7]: 63.6 min
AUC(0-t) [2, 7]: 4860 ng·h/mL
AUC(0-inf) [2, 7]: 4870 ng·h/mL
Cmax [2, 8]: 5460 ng/mL
Tmax [2, 9]: 15 min
SMILES: CCOC(=O)C1=C(CN2CC(F)(F)C[C@H]2C(C)CC(=O)O)NC(c2nccs2)=N[C@H]1c1ccc(F)cc1Br (stereo partly drawn) [Example 9, 3-((S)-1-(((R)-6-(2-bromo-4-fluorophenyl)-5-(ethoxycarbonyl)-2-(thiazol-2-yl)-3,6-dihydropyrimidin-4-yl)methyl)-4,4-difluoropyrrolidin-2-yl)butanoic acid]
